Data reported in patent US20230085307A1, “PYRIDAZINONE COMPOUND AND HERBICIDE” (NISSAN CHEMICAL CORPORATION, priority 2019, published 2023).

Experiments:
[1] = system: Japanese bulrush; test: Test Example 1: herbicidal activity, application before weed generation under submerged conditions (Table 16, symbol B); type: in vivo, Japanese bulrush (Schoenoplectus juncoides); settings: amount of applied herbicide 320 g/ha
Outline: (§1)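 Submerged Wagner pots (alluvial soil, 4 cm water) sown with weed seeds and planted with 2.5-leaf rice seedlings; emulsifiable concentrate diluted in water applied to water surface on sowing day. Held in greenhouse at 25-30 °C; injury scored 0-5 by herbicidal rate after three weeks.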

[2] = system: southern crabgrass; test: Test Example 5: herbicidal effect by foliage application, plastic box (Table 20, symbol F); type: in vivo, southern crabgrass (Digitaria ciliaris); settings: foliage application, 320 g/ha, three weeks after application
Outline: (§2)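 Plants sown in sterilized diluvial soil and grown 14 days in a greenhouse at 25° C to 30° C, then sprayed on the foliage with the compound's emulsion diluted in water to a predetermined herbicide amount. Injury to weeds and crops scored three weeks after application on a visual rating scale.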

[3] = system: barnyard grass; test: Test Example 4: herbicidal effect by soil treatment (Table 19, symbol H); type: in vivo, barnyard grass (Echinochloa crus-galli); settings: amount of applied herbicide 320 g/ha
Outline: (§3)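 Seeds were sown in sterilized diluvial soil and covered with about 1.5 cm of soil. An emulsion formulation diluted with water to a predetermined herbicide amount was sprayed evenly onto the soil surface. Plants grew in a greenhouse at 25° C. to 30° C., and the effect was scored three weeks after application using criteria from an earlier test.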

[4] = system: blackgrass; test: Test Example 5: herbicidal effect by foliage application, plastic box (Table 20, symbol J); type: in vivo, blackgrass (Alopecurus myosuroides); settings: foliage application, 320 g/ha, three weeks after application
Outline: as §2

[5] = system: lambsquarters; test: Test Example 5: herbicidal effect by foliage application, plastic box (Table 20, symbol O); type: in vivo, lambsquarters (Chenopodium album); settings: foliage application, 320 g/ha, three weeks after application
Outline: as §2

[6] = system: green foxtail; test: Test Example 5: herbicidal effect by foliage application, plastic box (Table 20, symbol G); type: in vivo, green foxtail (Setaria viridis); settings: foliage application, 320 g/ha, three weeks after application
Outline: as §2

[7] = system: southern crabgrass; test: Test Example 4: herbicidal effect by soil treatment (Table 19, symbol F); type: in vivo, southern crabgrass (Digitaria ciliaris); settings: amount of applied herbicide 320 g/ha
Outline: as §3

[8] = system: chickweed; test: Test Example 4: herbicidal effect by soil treatment (Table 19, symbol P); type: in vivo, common chickweed (Stellaria media); settings: amount of applied herbicide 320 g/ha
Outline: as §3

[9] = system: barnyard grass; test: Test Example 3: herbicidal effect by foliage application, Wagner pot (Table 18, symbol H); type: in vivo, barnyard grass (Echinochloa crus-galli)
Outline: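 Plants were sown in alluvial soil held under 0.1–0.5 cm standing water and grown 14 days in a greenhouse at 25–30 °C. An emulsifiable formulation, water-diluted to the set dose, was then sprayed onto the foliage, and effects were scored three weeks later using previously defined criteria.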

[10] = system: Japanese bulrush; test: Test Example 2: herbicidal activity, application during weed generation under submerged conditions (Table 17, symbol B); type: in vivo, Japanese bulrush (Schoenoplectus juncoides); settings: AAH 320 g/ha; application during weed generation, submerged conditions
Outline: (§4)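 Effect on each weed is rated three weeks post-treatment, using the same scoring criteria as the preceding test. Plants grow from mixed-sown seed in flooded alluvial soil (4 cm water) at 25° C. to 30° C., and are treated at one to two leaves with diluted emulsion dropped onto the water.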

[11] = system: redroot pigweed; test: Test Example 4: herbicidal effect by soil treatment (Table 19, symbol N); type: in vivo, redroot pigweed (Amaranthus retroflexus); settings: amount of applied herbicide 320 g/ha
Outline: as §3

[12] = system: blackgrass; test: Test Example 4: herbicidal effect by soil treatment (Table 19, symbol J); type: in vivo, blackgrass (Alopecurus myosuroides); settings: amount of applied herbicide 320 g/ha
Outline: as §3

[13] = system: wild oat; test: Test Example 5: herbicidal effect by foliage application, plastic box (Table 20, symbol I); type: in vivo, wild oat (Avena fatua); settings: foliage application, 320 g/ha, three weeks after application
Outline: as §2

[14] = system: persian speedwell; test: Test Example 5: herbicidal effect by foliage application, plastic box (Table 20, symbol R); type: in vivo, Persian speedwell (Veronica persica); settings: foliage application, 320 g/ha, three weeks after application
Outline: as §2

[15] = system: oval-leafed pondweed; test: Test Example 1: herbicidal activity, application before weed generation under submerged conditions (Table 16, symbol C); type: in vivo, oval-leafed pondweed (Monochoria vaginalis); settings: amount of applied herbicide 320 g/ha
Outline: as §1

[16] = system: late watergrass; test: Test Example 2: herbicidal activity, application during weed generation under submerged conditions (Table 17, symbol A); type: in vivo, late watergrass (Echinochloa oryzicola); settings: AAH 320 g/ha; application during weed generation, submerged conditions
Outline: as §4

[17] = amount of applied herbicide 320 g/ha

SMILES	Herbicidal effect, B: Japanese bulrush [1]	herbicidal effect on southern crabgrass (F) [2]	H: barnyard grass, herbicidal effect grade [3]	herbicidal effect on blackgrass (J) [4]	herbicidal effect on lambsquarters (O) [5]	herbicidal effect on green foxtail (G) [6]	F: southern crabgrass, herbicidal effect grade [7]	P: chickweed, herbicidal effect grade [8]	Herbicidal effect on H (barnyard grass), foliage application [9, 17]	herbicidal effect rating, B: Japanese bulrush [10]	N: redroot pigweed, herbicidal effect grade [11]	J: blackgrass, herbicidal effect grade [12]	herbicidal effect on wild oat (I) [13]	herbicidal effect on persian speedwell (R) [14]	Herbicidal effect, C: oval-leafed pondweed [15]	herbicidal effect rating, A: late watergrass [16]	other results
COc1ccc(-c2oc3ccc(F)cc3c2-c2c(O)c(C)nn(C)c2=O)cc1 [Compound No. 9-020, 4-(5-fluoro-2-(4-methoxyphenyl)benzofuran-3-yl)-5-hydroxy-2,6-dimethylpyridazin-3(2H)-one]	5 (Herbicidal rate of 90% or more (almost completely withered))	4 (Herbicidal rate of 70% or more and less than 90%)	4 (Herbicidal rate of 70% or more and less than 90%)	4 (Herbicidal rate of 70% or more and less than 90%)	5 (Herbicidal rate of 90% or more (almost completely withered))	5 (Herbicidal rate of 90% or more (almost completely withered))	4 (Herbicidal rate of 70% or more and less than 90%)	4 (Herbicidal rate of 70% or more and less than 90%)	5 (Herbicidal rate of 90% or more (almost completely withered))	3 (Herbicidal rate of 40% or more and less than 70%)	5 (Herbicidal rate of 90% or more (almost completely withered))	3 (Herbicidal rate of 40% or more and less than 70%)	3 (Herbicidal rate of 40% or more and less than 70%)	5 (Herbicidal rate of 90% or more (almost completely withered))	5 (Herbicidal rate of 90% or more (almost completely withered))	3 (Herbicidal rate of 40% or more and less than 70%)	–
CCOc1ccccc1-c1sc2ccc(F)cc2c1-c1c(O)c(CC)nn(C)c1=O [2-416]	3 (Herbicidal rate of 40% or more and less than 70%)	–	–	–	–	–	–	–	–	3 (Herbicidal rate of 40% or more and less than 70%)	–	–	–	–	2 (Herbicidal rate of 20% or more and less than 40%)	2 (Herbicidal rate of 20% or more and less than 40%)	F: southern crabgrass, herbicidal effect grade [2]: 1 (Herbicidal rate of 5% or more and less than 20%); herbicidal effect, H: barnyard grass [3]: 0 (Herbicidal rate of 5% or less (almost no effect)); J: blackgrass, herbicidal effect grade [4]: 0 (Herbicidal rate of 5% or less (almost no effect)); O: lambsquarters, herbicidal effect grade [5]: 2 (Herbicidal rate of 20% or more and less than 40%); G: green foxtail, herbicidal effect grade [6]: 2 (Herbicidal rate of 20% or more and less than 40%); herbicidal effect, F: southern crabgrass [7]: 0 (Herbicidal rate of 5% or less (almost no effect)); herbicidal effect, P: chickweed [8]: 2 (Herbicidal rate of 20% or more and less than 40%); herbicidal effect on H: barnyard grass [9, 17]: 5 (Herbicidal rate of 90% or more (almost completely withered)); herbicidal effect, N: redroot pigweed [11]: 0 (Herbicidal rate of 5% or less (almost no effect)); herbicidal effect, J: blackgrass [12]: 0 (Herbicidal rate of 5% or less (almost no effect)); I: wild oat, herbicidal effect grade [13]: 0 (Herbicidal rate of 5% or less (almost no effect)); R: persian speedwell, herbicidal effect grade [14]: 5 (Herbicidal rate of 90% or more (almost completely withered))
Cc1nn(C)c(=O)c(-c2c(-c3ccc(OC(C)C)cc3)oc3ccc(F)cc23)c1O [9-025]	5 (Herbicidal rate of 90% or more (almost completely withered))	5 (Herbicidal rate of 90% or more (almost completely withered))	4 (Herbicidal rate of 70% or more and less than 90%)	4 (Herbicidal rate of 70% or more and less than 90%)	4 (Herbicidal rate of 70% or more and less than 90%)	0 (Herbicidal rate of 5% or less (almost no effect))	4 (Herbicidal rate of 70% or more and less than 90%)	0 (Herbicidal rate of 5% or less (almost no effect))	5 (Herbicidal rate of 90% or more (almost completely withered))	3 (Herbicidal rate of 40% or more and less than 70%)	3 (Herbicidal rate of 40% or more and less than 70%)	3 (Herbicidal rate of 40% or more and less than 70%)	3 (Herbicidal rate of 40% or more and less than 70%)	5 (Herbicidal rate of 90% or more (almost completely withered))	5 (Herbicidal rate of 90% or more (almost completely withered))	4 (Herbicidal rate of 70% or more and less than 90%)	–
COc1cc(F)ccc1-c1sc2cc(C)c(C)cc2c1-c1c(O)c(C)nn(C)c1=O [5-101]	3 (Herbicidal rate of 40% or more and less than 70%)	4 (Herbicidal rate of 70% or more and less than 90%)	0 (Herbicidal rate of 5% or less (almost no effect))	4 (Herbicidal rate of 70% or more and less than 90%)	4 (Herbicidal rate of 70% or more and less than 90%)	4 (Herbicidal rate of 70% or more and less than 90%)	0 (Herbicidal rate of 5% or less (almost no effect))	0 (Herbicidal rate of 5% or less (almost no effect))	–	2 (Herbicidal rate of 20% or more and less than 40%)	1 (Herbicidal rate of 5% or more and less than 20%)	0 (Herbicidal rate of 5% or less (almost no effect))	0 (Herbicidal rate of 5% or less (almost no effect))	4 (Herbicidal rate of 70% or more and less than 90%)	3 (Herbicidal rate of 40% or more and less than 70%)	0 (Herbicidal rate of 5% or less (almost no effect))	herbicidal effect on barnyard grass (H) ([9]; 320 g/ha): 5 (Herbicidal rate of 90% or more (almost completely withered))
